# Paper PMC6533572, “Elucidation of the Differences in Cinobufotalin’s Pharmacokinetics Between Normal and Diethylnitrosamine-Injured Rats: The Role of P-Glycoprotein” (Frontiers in Pharmacology, 2019)
# Where two headings read alike, the source gives them in different places.
# Columns and labels:
# [1] = Water solubility; assay type: physicochemical; settings: pH 7.0
# From the text: Traditional Chinese Medicine (TMC) is widely used due to high efficiency and low toxicity in the treatment of various diseases. Toad venom (also known as Chan’su) is derived from the dried skin secretions of giant toads (Bufo gargarizans Cantor or Bufo melanostictus Suhneider) and is currently used in clinical practice, such as Cinobufacini injection, to treat HCC ([Kamano et al., 2002]; [Tang et al., 2008]; [Hu et al., 2011]; [Zhang et al., 2018]). Cinobufotalin (Figure 1A), a bufadienolide in chemical structure, is one of the major anti-tumor components of Cinobufacini injection ([Tao et al., 2010]; [Zhang et al., 2018]). […] This implied that cinobufotalin has shown excellent druggability.
# [2] = system: Huh-7 cells; test: Wound healing assay, Huh-7 cells; assay type: cell-based; settings: 40, 60 and 80 nM, 24 h
# Procedure: Hepatocellular cancer cells (HepG2 and Huh-7) were purchased from the cell bank of the Chinese Academy of Science (Shanghai, China). These cells were cultured in Dulbecco’s modified Eagle’s medium (DMEM) containing 10% fetal bovine serum (FBS), penicillin (100 units/mL) and streptomycin (100 units/mL) in a humidified atmosphere with 5% CO2 at 37 °C.
# Wound healing assay was used to investigate the effect of cinobufotalin on the migration of HepG2 and Huh-7 cells. Cells were seeded into 6-well plates at the density of 4 × 10^5 cells/well and maintained until reaching monolayer confluence. The cells were scratched using 20-μL pipette tips and rinsed with PBS buffer for three times. And then the cells were cultured in serum-free medium containing different concentrations of cinobufotalin (40, 60, 80 nM). After treatment with cinobufotalin for different lengths of time (0 and 24 h), the width of wound was measured and the images of cells were acquired using inverted microscope (Leica, Wetzlar, German). The rate of wound healing = [(the wound width of 0 h - 24 h)/0 h wound width] × 100%. All experiments were performed in triplicate.
# [3] = Bidirectional transport across MDCK II cell monolayers; assay type: in vitro ADME, canine; settings: dog; for efflux ratio at 120 min, 20 μM: read-out: ER
# Procedure: MDCK II and MDCK-MDR1 cells were seeded into 12-well Transwell polycarbonate membrane inserts (12 mm diameter inserts, 0.4 μm pore size, Corning Costar) at a density of 6 × 10^5 cells/well. Cells were cultured at 37°C under 5% CO2 in DMEM with 10% FBS, and the culture medium was refreshed every other day. Experiments were conducted when the tight junctional cell monolayer formed. First, the cells were washed three times using 37°C preheated HBSS buffer (pH = 7.4) and preincubated in a shaking incubator for 30 min at 37°C. Then the transport studies were initiated after the blank HBSS buffer and dosing solution (HBSS buffer containing cinobufotalin at a final concentration of 20 μM) were added to the receiver compartment and donor compartment, respectively. Verapamil, if used, was added to both compartment during the incubated period. The volumes of the apical side (AP) and basolateral side (BL) were 0.5 and 1.5 mL, respectively. Samples (100 μL) were taken from the receiver compartment every 30 min during the incubation period of 120 min, and then replaced with the same volume of […]. At the end of the incubated period, aliquots of 100 μL were withdrawn from the donor compartment to calculated mass balance. All samples were mixed with 50 μL acetonitrile and centrifuged at 4°C (12,000 g, 10 min. The supernatant was subjected to UPLC-QTOF/MS for analyses.
# The apparent permeability (cm/s) from apical-to-basal (Papp,AP-BL) and basal-to-apical (Papp,BL-AP) were calculated according to the following Equation (4), where dQ/dt is the rate of drug permeation (nmol/s), A is the area of polycarbonate membrane (A = 1.12 cm^2), and C0 is the initial concentration of cinobufotalin in the donor compartment.
# The efflux ratio (ER) and net flux ratio were calculated according to Equations (5) and (6) as described in our previous research ([Sun et al., 2017]).
# (5) ER=Papp, BL−AP/Papp, AP−BL
# [4] = Stability in 50% acetonitrile solution; assay type: physicochemical
# Procedure: In addition, the stabilities of cinobufotalin at 20, 200, and 2000 ng/mL in different storage conditions were evaluated, including short term stability (such as 25°C for 4, 8, 12, and 24 h and 4°C for 4, 8, 12, and 24 h), long term stability (-80°C for 10 days) and three freeze-thaw cycles in rat plasma. Stabilities were expressed as the concentrations after different operations to the concentration at time zero. All of the samples were processed as described in Preparation of rat plasma samples section. A 5 μL aliquot was injected to UPLC-QTOF/MS for analyses.
# In addition, we also evaluated the stability of cinobufotalin in 50% accetonitrile solution at 4°C and room temperature (25°C) after storage for 4, 8, 12, and 24 h.
# [5] = pH 7.4, with verapamil (concentration not stated), in both compartments, cinobufotalin 20 μM, with verapamil
compound,measurement,setting,value
CC(=O)O[C@H]1[C@H]2O[C@]23[C@@H]2CC[C@]4(O)C[C@@H](O)CC[C@]4(C)[C@H]2CC[C@]3(C)[C@H]1c1ccc(=O)oc1 [Cinobufotalin],solubility,[1],117 µg/mL
same,migration of Huh-7 cells (wound healing),[2],significantly attenuated
same,"Papp A→B at 120 min, 20 μM","[3]; pH 7.4, cinobufotalin 20 μM",33.8 ± 1.1 ×10⁻⁶ cm/s
same,"Papp B→A at 120 min, 20 μM","[3]; pH 7.4, cinobufotalin 20 μM",35.9 ± 1.3 ×10⁻⁶ cm/s
same,"efflux ratio at 120 min, 20 μM","[3]; pH 7.4, cinobufotalin 20 μM",1.1
same,"Papp A→B at 120 min, 20 μM",[3]; [5],23.4 ± 2.2 ×10⁻⁶ cm/s
same,"Papp B→A at 120 min, 20 μM",[3]; [5],24.8 ± 2.7 ×10⁻⁶ cm/s
same,"efflux ratio at 120 min, 20 μM",[3]; [5],1.1
same,"Stability in 50% Acetonitrile solution, 4°C, 4 h",[4]; 20 ng/mL,97.5 ± 5.7%
same,"Stability in 50% Acetonitrile solution, 4°C, 8 h",[4]; 20 ng/mL,101.9 ± 3.6%
same,"Stability in 50% Acetonitrile solution, 4°C, 12 h",[4]; 20 ng/mL,99.1 ± 2.5%
same,"Stability in 50% Acetonitrile solution, 4°C, 24 h",[4]; 20 ng/mL,100.4 ± 2.7%
same,"Stability in 50% Acetonitrile solution, 25°C, 4 h",[4]; 20 ng/mL,99.5 ± 4.4%
same,"Stability in 50% Acetonitrile solution, 25°C, 8 h",[4]; 20 ng/mL,97.1 ± 2.3%
same,"Stability in 50% Acetonitrile solution, 25°C, 12 h",[4]; 20 ng/mL,97.7 ± 4.6%
same,"Stability in 50% Acetonitrile solution, 25°C, 24 h",[4]; 20 ng/mL,95.5 ± 4.3%
same,"Stability in 50% Acetonitrile solution, 4°C, 4 h",[4]; 200 ng/mL,102.6 ± 6.8%
same,"Stability in 50% Acetonitrile solution, 4°C, 8 h",[4]; 200 ng/mL,99.5 ± 4.0%
same,"Stability in 50% Acetonitrile solution, 4°C, 12 h",[4]; 200 ng/mL,97.4 ± 2.9%
same,"Stability in 50% Acetonitrile solution, 4°C, 24 h",[4]; 200 ng/mL,96.7 ± 2.6%
same,"Stability in 50% Acetonitrile solution, 25°C, 4 h",[4]; 200 ng/mL,100.1 ± 2.8%
same,"Stability in 50% Acetonitrile solution, 25°C, 8 h",[4]; 200 ng/mL,101.2 ± 2.0%
same,"Stability in 50% Acetonitrile solution, 25°C, 12 h",[4]; 200 ng/mL,99.5 ± 4.3%
same,"Stability in 50% Acetonitrile solution, 25°C, 24 h",[4]; 200 ng/mL,99.0 ± 2.8%
same,"Stability in 50% Acetonitrile solution, 4°C, 4 h",[4]; 2000 ng/mL,102.0 ± 5.0%
same,"Stability in 50% Acetonitrile solution, 4°C, 8 h",[4]; 2000 ng/mL,103.7 ± 3.5%
same,"Stability in 50% Acetonitrile solution, 4°C, 12 h",[4]; 2000 ng/mL,96.3 ± 4.0%
same,"Stability in 50% Acetonitrile solution, 4°C, 24 h",[4]; 2000 ng/mL,97.9 ± 2.5%
same,"Stability in 50% Acetonitrile solution, 25°C, 4 h",[4]; 2000 ng/mL,100.3 ± 3.0%
same,"Stability in 50% Acetonitrile solution, 25°C, 8 h",[4]; 2000 ng/mL,99.1 ± 1.1%
same,"Stability in 50% Acetonitrile solution, 25°C, 12 h",[4]; 2000 ng/mL,98.4 ± 3.5%
same,"Stability in 50% Acetonitrile solution, 25°C, 24 h",[4]; 2000 ng/mL,100.5 ± 3.3%
